As a reminder, the IC50 is the concentration needed to halve the response being measured.

The test concerns the target T1, TβR (GST-ALK5) (Homo sapiens, UniProt P36897).
T1 sequence (P36897 34-503): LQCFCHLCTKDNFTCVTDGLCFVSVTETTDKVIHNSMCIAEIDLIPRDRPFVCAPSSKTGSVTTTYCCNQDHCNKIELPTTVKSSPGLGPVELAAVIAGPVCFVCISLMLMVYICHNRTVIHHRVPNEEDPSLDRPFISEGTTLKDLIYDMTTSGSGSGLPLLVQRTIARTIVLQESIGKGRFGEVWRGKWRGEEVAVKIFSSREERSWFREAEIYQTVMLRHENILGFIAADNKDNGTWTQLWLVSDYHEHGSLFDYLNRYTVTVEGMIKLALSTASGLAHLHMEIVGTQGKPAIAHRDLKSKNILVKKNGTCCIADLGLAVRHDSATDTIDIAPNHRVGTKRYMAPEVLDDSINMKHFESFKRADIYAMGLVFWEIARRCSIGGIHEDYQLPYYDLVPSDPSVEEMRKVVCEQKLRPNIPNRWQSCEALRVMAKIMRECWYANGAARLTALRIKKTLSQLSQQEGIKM
The test can be described thus: In-vitro (enzyme) flashplate kinase assay, TβR activity. Type of test: biochemical. The settings on record: GST-ALK5, GST-SMAD2 substrate, 3 mM ATP. As to the method: In-Vitro (Enzyme) Assay for Determination of the Efficacy of Inhibitors of the Inhibition of TGF-Beta-Mediated Effects
The kinase assay was carried out as 384-well flashplate assay. […] The reaction was stopped using 25 μl of 200 mM EDTA solution, filtered with suction at room temperature after 30 min, and the wells were washed with 3 times 100 μl of 0.9% NaCl solution. Radioactivity was measured in the TopCount. The IC50 values were calculated using RS1. Above and below, all temperatures were indicated in ° C.

`CC(=O)OC(C)(C)C(=O)Nc1cnccc1Nc1cc(-c2cc(Cl)ccc2F)nc2ccccc12` [compound 088] registered an IC50 of 1 to 10 µM.

Regarding `Nc1ncnc(Nc2cc(-c3cc(Cl)ccc3F)nc3ccccc23)n1` [compound 078], the IC50 is less than 0.5 µM.

Take `Nc1cnncc1Nc1cc(-c2cc(Cl)ccc2F)nc2ccccc12` [compound 092]: the IC50 was 1 to 10 µM.

`Fc1ccc(Cl)cc1-c1cc(N(c2ccncn2)c2cc(-c3cc(Cl)ccc3F)nc3ccccc23)c2ccccc2n1` [compound 017] returned an IC50 of 1 to 10 µM.

As to `Nc1cnccc1Nc1cc(-c2ccccc2F)nc2ccccc12` [compound 074, N*4*-[2-(2-fluoro-phenyl)-quinolin-4-yl]-pyridine-3,4-diamine], the IC50 was 1 to 10 µM.

Consider `Fc1ccc(Cl)cc1-c1cc(Nc2ccnc(N(c3ccnc(Cl)c3)c3cc(-c4cc(Cl)ccc4F)nc4ccccc34)c2)c2ccccc2n1` [compound 022], for which the IC50 was in the range of 1 to 10 µM.

On to `Fc1ccc(Cl)cc1-c1cc(Nc2ccnc3ccccc23)c2ccccc2n1` [compound 013], for which the IC50 is less than 0.5 µM.

Consider `Cc1nc2cnccc2n1-c1cc(-c2cc(Cl)ccc2F)nc2ccccc12` [compound 026], for which the IC50 was in the range of 0.5 to 1 µM.

With `Fc1ccc(Cl)cc1-c1cc(Nc2cn[nH]c2)c2ccccc2n1` [compound 016], the IC50 is less than 0.5 µM.

`Fc1ccc(Br)cc1-c1cc(Nc2ccncc2)c2ccccc2n1` [compound 084]: the IC50 was less than 0.5 µM.

With `O=[N+]([O-])c1cnccc1Nc1cc(-c2cc(Cl)ccc2F)nc2ccccc12` [compound 018, [2-(5-Chloro-2-fluoro-phenyl)-quinolin-4-yl]-(3-nitro-pyridin-4-yl)-amine], the IC50 was in the range of 1 to 10 µM.

In turn, `COc1ccc2c(Nc3cc(-c4cc(Cl)ccc4F)nc4ccccc34)ccnc2c1` [compound 075] returned an IC50 of less than 0.5 µM.

For the compound `Nc1ccnc(Nc2cc(-c3cc(Cl)ccc3F)nc3ccccc23)c1` [compound 035], the IC50 is greater than 10 µM.

As for `CN1CCN(c2cc(Nc3cc(-c4cc(Cl)ccc4F)nc4ccccc34)ncn2)CC1` [compound 103], the IC50 is greater than 10 µM.

The compound `CC(=O)N(c1cc(N)ncn1)c1cc(-c2cc(Cl)ccc2F)nc2ccccc12` [compound 110] returned an IC50 of 1 to 10 µM.

Compound `CC(=O)Nc1cc(Nc2cc(-c3cc(Cl)ccc3F)nc3ccccc23)ccn1` [compound 107] gave an IC50 of less than 0.5 µM.

In the case of `Fc1ccc(Cl)cc1-c1cc(Nc2ccncc2)c2cc3c(cc2n1)OCO3` [compound 095], the IC50 is greater than 10 µM.

The compound `Fc1ccccc1-c1cc(Nc2ccncn2)c2ccccc2n1` [compound 045] registered an IC50 of less than 0.5 µM.

As for `COc1cnccc1Nc1cc(-c2cc(Cl)ccc2F)nc2ccccc12` [compound 090, [2-(5-Chloro-2-fluoro-phenyl)-quinolin-4-yl]-(3-methoxy-pyridin-4-yl)-amine], the IC50 was less than 0.5 µM.

The compound `Nc1cnccc1Nc1cc(-c2cc(Cl)ccc2F)nc2ccccc12` [compound 019] had an IC50 of less than 0.5 µM.

For `Fc1ccc(Cl)cc1-c1cc(Nc2cc(Nc3cc(-c4cc(Cl)ccc4F)nc4ccccc34)ncn2)c2ccccc2n1` [compound 036], the IC50 is greater than 10 µM.

In turn, `Nc1nc(N)nc(Nc2cc(-c3cc(Cl)ccc3F)nc3ccccc23)n1` [compound 117] gave an IC50 of 1 to 10 µM.

`COCC(=O)Nc1cnccc1Nc1cc(-c2cc(Cl)ccc2F)nc2ccccc12` [compound 086] showed an IC50 of less than 0.5 µM.

The compound `COc1cccc(-c2cc(Nc3ccncc3)c3ccccc3n2)c1` [compound 049] came in with an IC50 of 0.5 to 1 µM.

In turn, `CN(C)CCC(=O)Nc1cnccc1Nc1cc(-c2cc(Cl)ccc2F)nc2ccccc12` [compound 064] came in with an IC50 of less than 0.5 µM.

`COc1cc(Nc2cc(-c3cc(Cl)ccc3F)nc3ccccc23)ncn1` [compound 104] returned an IC50 greater than 10 µM.

Compound `Nc1cc(Nc2cc(-c3cc(Cl)ccc3F)nc3ccccc23)ncn1` [compound 038] gave an IC50 of less than 0.5 µM.

As to `Fc1ccc(Cl)cc1-c1cc(-n2ccc3cnccc32)c2ccccc2n1` [compound 014], the IC50 is less than 0.5 µM.

For `O=C(O)c1cc(Nc2cc(-c3cc(Cl)ccc3F)nc3ccccc23)ccn1` [compound 124], the IC50 is 1 to 10 µM.

`Fc1ccc(Cl)cc1-c1cc(Nc2ccncn2)c2ccccc2n1` [compound 003] registered an IC50 of less than 0.5 µM.

For the compound `Fc1ccccc1-c1cc(Nc2ccncc2)c2ccccc2n1` [compound 044], the IC50 is less than 0.5 µM.

Compound `CC(C)(C)C(=O)Nc1cc(Nc2cc(-c3cc(Cl)ccc3F)nc3ccccc23)ccn1` [compound 111] returned an IC50 of 1 to 10 µM.

`CN1CCN(C(=O)Nc2cnccc2N(C(=O)N2CCN(C)CC2)c2cc(-c3cc(Cl)ccc3F)nc3ccccc23)CC1` [compound 061] showed an IC50 greater than 10 µM.

Compound `c1ccc2c(Nc3ccncc3)cc(C3CCCCC3)nc2c1` [compound 047] came in with an IC50 of 1 to 10 µM.

`Fc1ccc(Cl)cc1-c1cc(NCc2cccnc2)c2ccccc2n1` [compound 065] registered an IC50 greater than 10 µM.

`c1ccc(-c2cc(Nc3ccncc3)c3ccccc3n2)cc1` [compound 073]: the IC50 was less than 0.5 µM.

With `O=C(Nc1cc(-c2cc(Cl)ccc2F)nc2ccccc12)c1ccncc1` [compound 009], the IC50 lay in the range of 1 to 10 µM.

`O=S1(=O)Nc2cnccc2N1c1cc(-c2cc(Cl)ccc2F)nc2ccccc12` [compound 025] came in with an IC50 of less than 0.5 µM.

`CC(C)(C)S(=O)(=O)c1cnccc1Nc1cc(-c2cc(Cl)ccc2F)nc2ccccc12` [compound 096] returned a 50% inhibitory concentration (IC50) greater than 10 µM.

As to `Fc1ccc(C(F)(F)F)cc1-c1cc(Nc2ccncc2)c2ccccc2n1` [compound 056], the IC50 is less than 0.5 µM.

For `Clc1ccc(-c2cc(Nc3ccncc3)c3ccccc3n2)cc1Cl` [compound 108], the IC50 is greater than 10 µM.

`Oc1ccccc1-c1cc(Nc2ccncc2)c2ccccc2n1` [compound 099] yielded an IC50 greater than 10 µM.

The compound `N#Cc1cccc(-c2cc(Nc3ccncc3)c3ccccc3n2)c1` [compound 055] displayed an IC50 of 1 to 10 µM.

`O=c1[nH]c2cnccc2n1-c1c(O)c(-c2cc(Cl)ccc2F)nc2ccccc12` [compound 053] showed an IC50 of 1 to 10 µM.

For `Clc1cccc(-c2cc(Nc3ccncc3)c3ccccc3n2)c1` [compound 059], the IC50 is less than 0.5 µM.

Consider `CN(C)c1cccc(-c2cc(Nc3ccncc3)c3ccccc3n2)c1` [compound 079], for which the IC50 was in the range of 1 to 10 µM.

In turn, `CN(C)CCNC(=O)c1cnccc1Nc1cc(-c2cc(Cl)ccc2F)nc2ccccc12` [compound 123] showed an IC50 of less than 0.5 µM.

`CN1CCN(c2cc(Nc3cc(-c4cc(Cl)ccc4F)nc4ccccc34)cc(Cl)n2)CC1` [compound 097] came in with an IC50 greater than 10 µM.

The compound `OCc1cnccc1Nc1cc(-c2cc(Cl)ccc2F)nc2ccccc12` [compound 120] displayed an IC50 of less than 0.5 µM.

Turning to `CN1CCC(NC(=O)c2cnccc2Nc2cc(-c3cc(Cl)ccc3F)nc3ccccc23)CC1` [compound 125], the IC50 is less than 0.5 µM.

`Fc1ccc(Cl)cc1-c1cc(-n2cnc3cnccc32)c2ccccc2n1` [compound 077] had an IC50 of less than 0.5 µM.

`CN(C)CCCC(=O)Nc1cnccc1Nc1cc(-c2cc(Cl)ccc2F)nc2ccccc12` [compound 067] returned an IC50 of 0.5 to 1 µM.

With `Clc1cccc(-c2cc(Nc3ccncc3)c3ccccc3n2)c1Cl` [compound 112], the IC50 was greater than 10 µM.

`FC(F)(F)c1ccc(Cl)cc1-c1cc(Nc2ccncc2)c2ccccc2n1` [compound 058] gave an IC50 greater than 10 µM.

On to `OCc1cnccc1Nc1cc(-c2ccccc2F)nc2ccccc12` [compound 127], for which the 50% inhibitory concentration (IC50) is less than 0.5 µM.

The compound `Fc1ccc(Cl)c(-c2cc(Nc3ccncc3)c3ccccc3n2)c1` [compound 070] registered an IC50 of 1 to 10 µM.

Consider `CCOC(=O)n1c(=O)n(-c2cc(-c3cc(Cl)ccc3F)nc3ccccc23)c2ccncc21` [compound 039], for which the IC50 was less than 0.5 µM.

Compound `Fc1ccc(Cl)cc1-c1cc(Oc2ccncc2)c2ccccc2n1` [compound 006] showed an IC50 greater than 10 µM.

In turn, `Fc1ccc(Cl)cc1-c1cc(Nc2ccccn2)c2ccccc2n1` [compound 005] yielded an IC50 greater than 10 µM.

Take `CN(C)CCCNc1cc(Nc2cc(-c3ccccc3F)nc3ccccc23)ccn1` [compound 121]: the IC50 was less than 0.5 µM.

On to `Oc1ccc2c(Nc3cc(-c4cc(Cl)ccc4F)nc4ccccc34)ccnc2c1` [compound 098], for which the IC50 was in the range of 0.5 to 1 µM.

For the compound `Nc1cc(Nc2cc(-c3cc(Cl)ccc3F)nc3ccccc23)ccn1` [compound 105], the IC50 was less than 0.5 µM.

`Nc1ccncc1Nc1cc(-c2cc(Cl)ccc2F)nc2ccccc12` [compound 029] had an IC50 greater than 10 µM.

Turning to `Fc1ccc(Cl)cc1-c1cc(NCc2ccncc2)c2ccccc2n1` [compound 060], the IC50 is greater than 10 µM.

In turn, `Fc1ccc(Cl)cc1-c1cc(Nc2cnncc2Nc2cc(-c3cc(Cl)ccc3F)nc3ccccc23)c2ccccc2n1` [compound 087] had an IC50 greater than 10 µM.

`Fc1ccc(Cl)cc1-c1cc(Cc2ccncc2)c2ccccc2n1` [compound 004] displayed a half-maximal inhibitory concentration (IC50) greater than 10 µM.

`Nc1cnccc1N(CCC(=O)O)c1cc(-c2cc(Cl)ccc2F)nc2ccccc12` [compound 072] gave an IC50 greater than 10 µM.

Regarding `O=S(=O)(O)Nc1cnccc1Nc1cc(-c2cc(Cl)ccc2F)nc2ccccc12` [compound 041], the IC50 is 1 to 10 µM.
